This passage reports EC50 results from patent publication US11951094B2, “TLR2 modulator compounds, pharmaceutical compositions and uses thereof” (Axial Therapeutics, Inc., priority 2020, dated 2024).

For the first assay, the target named is TLR2 (Homo sapiens, UniProt O60603). Put plainly: TLR2 agonist screening assay, HEK-Blue TLR2 reporter cell line (NF-kB-driven SEAP, absorbance at 600 nm). It counts as cell-based. Set-up: host or cells: HEK-293 (HEK-Blue TLR2 reporter cell line). As to conditions: HEK-Blue TLR2 reporter cells, agonist mode; average of all runs (Table 3). The source says: TLRs are a class of cell-surface receptors expressed on many different cell types that recognize conserved structural motifs present on pathogen-derived molecules. TLR2 recognizes bacteria-derived lipopeptides. […] Provided herein is an assay to identify and characterize the binding affinities of novel TLR2 agonists.
TLR2, sequence (O60603 21-784): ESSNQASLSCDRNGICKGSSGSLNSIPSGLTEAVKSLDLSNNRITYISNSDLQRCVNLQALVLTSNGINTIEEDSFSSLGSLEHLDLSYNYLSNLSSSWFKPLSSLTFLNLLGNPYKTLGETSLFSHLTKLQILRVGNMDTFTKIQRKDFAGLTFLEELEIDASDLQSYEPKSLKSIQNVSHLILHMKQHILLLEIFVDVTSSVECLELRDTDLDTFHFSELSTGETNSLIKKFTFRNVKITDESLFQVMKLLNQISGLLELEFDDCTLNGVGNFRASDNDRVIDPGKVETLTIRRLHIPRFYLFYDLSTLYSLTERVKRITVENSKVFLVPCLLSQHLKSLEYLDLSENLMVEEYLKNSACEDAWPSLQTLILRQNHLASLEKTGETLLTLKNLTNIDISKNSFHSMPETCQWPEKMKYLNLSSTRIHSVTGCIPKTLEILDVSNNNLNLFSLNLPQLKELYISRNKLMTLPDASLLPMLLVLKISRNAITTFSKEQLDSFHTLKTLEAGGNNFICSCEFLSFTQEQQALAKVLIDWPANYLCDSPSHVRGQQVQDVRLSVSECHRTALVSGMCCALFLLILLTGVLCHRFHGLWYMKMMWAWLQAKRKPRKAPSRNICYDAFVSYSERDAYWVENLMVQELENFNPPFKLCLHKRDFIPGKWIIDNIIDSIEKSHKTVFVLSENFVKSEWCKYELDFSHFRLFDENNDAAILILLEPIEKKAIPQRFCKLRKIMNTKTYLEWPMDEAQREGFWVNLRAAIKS
The in vitro TLR2 assay consists of a cell line that responds to TLR2 engagement by producing a factor that elicits a color change in the culture media and can be readily measured by various colorimetric detection methods. This assay enables the identification of existing and novel compounds that engage TLR2 and, by virtue of compound dilution, to approximate the binding affinity of these compounds for eliciting a TLR2 signal.
The TLR2 screening assay was developed from the HEK-Blue TLR2 reporter cell line that is commercially available from Invivogen (San Diego, CA). The reporter cell line consists of HEK-293 embryonic kidney cells that have been engineered to express TLR2 and with an NF-kB promoter driving expression of Secreted Alkaline Phosphatase (SEAP). Upon engagement of TLR2, downstream signaling results in activation of NF-kB pathway activation and secretion of SEAR In the presence of the detection reagent in the tissue culture media, SEAP mediates a color change from clear to indigo that is readily assessed by measuring absorbance at 600 nm.
HEK-Blue TLR2 reporter cells are cultured according to manufacturer's specifications until a confluence of 70-90%, at which point the cells are trypsinized, counted, and plated into 96-well plates at approximately 40,000 cells per well. Cells are cultured overnight and the TLR2 assay is performed 16-24 hours post-plating into 96 well plates.
Compounds are diluted from stocks dissolved in DMSO and a 1% DMSO final concentration is maintained in all testing wells.
The assay consists of removing the cell culture media after cells have been cultured overnight and replacing the media with HEK-Blue Detection media with TLR2 agonists at indicated dilution schemes. The Detection media contains a chemical substrate that turns from clear to indigo when acted upon by SEAP. The HEK-Blue cells are then cultured overnight in Detection media with diluted compounds. After overnight culture with agonists, each well of the plate is assayed in a plate reader at 600 nanometer absorbance.
• (1) HEK-Blue TLR2 cells are diluted in complete DME culture medium and plated into 96-well plates at 40,000 cells per well and cultured overnight. • (2) After 16-24 hours in culture, the media is removed and replaced with 200 microliters per well of HEK-Blue Detection media. • (3) TLR2 agonists are diluted 100-fold from DMSO stocks into each well, yielding a final DMSO concentration of 1% in all wells. • (3) Treated cells are cultured overnight and the following day are assayed in plate reader for Absorbance at 600 nanometer.
Following assay measurements utilizing either HEK-Blue detection or cytokine release, all data is analyzed with the GraphPad Prism8 statistical package to determine EC50, binding and activity metrics for the TLR2 modulators.
Data is generated using protocol described in Example 44.
`O=C(NC1CCCCCCC1)[C@H]1CCN(C(=O)c2ccc(C(=O)N3C[C@@H](C(=O)N[C@H]4C[C@@H]4c4ccccc4)[C@H](C(=O)N[C@H]4C[C@@H]4c4ccccc4)C3)cc2)C1` [Compound 003]: the EC50 was > 1000 nM. `CCCCCCCCCCCCCCNC(=O)[C@H]1CCN(C(=O)c2ccc(C(=O)N3C[C@@H](C(=O)N[C@H]4C[C@@H]4c4ccccc4)[C@H](C(=O)N[C@H]4C[C@@H]4c4ccccc4)C3)cc2)C1` [Compound 004] displayed an EC50 of 0.1 to 50 nM.

For the molecule `CCCCCCCCCCCCCCNC(=O)C1CN(C(=O)c2ccc(C(=O)N3C[C@@H](C(=O)N[C@H]4C[C@@H]4c4ccccc4)[C@H](C(=O)N[C@H]4C[C@@H]4c4ccccc4)C3)cc2)CCO1` (stereo partly drawn) [Compound 006], the EC50 lay within 351 to 1000 nM. As to `CCCCCCN(CCCCCC)C(=O)[C@H]1CCN(C(=O)c2ccc(C(=O)N3C[C@@H](C(=O)N[C@H]4C[C@@H]4c4ccccc4)[C@H](C(=O)N[C@H]4C[C@@H]4c4ccccc4)C3)cc2)C1` [Compound 009], the EC50 is > 1000 nM. For the molecule `CCCCCCCCCCCCCCNC(=O)C1CCN(C(=O)c2ccc(C(=O)N3C[C@@H](C(=O)N[C@H]4C[C@@H]4c4ccccc4)[C@H](C(=O)N[C@H]4C[C@@H]4c4ccccc4)C3)cc2)CC1` [Compound 010], the EC50 was > 1000 nM. The same measure, in the same setting: the result for `CCCCCCCCCCCCCCNC(=O)CC(C)(C)NC(=O)c1ccc(C(=O)N2C[C@@H](C(=O)N[C@H]3C[C@@H]3c3ccccc3)[C@H](C(=O)N[C@H]3C[C@@H]3c3ccccc3)C2)cc1` [Compound 011] reads > 1000 nM; that for `CCCCCCCCCCCCCCC(=O)NC(C)(C)CNC(=O)c1ccc(C(=O)N2C[C@@H](C(=O)N[C@H]3C[C@@H]3c3ccccc3)[C@H](C(=O)N[C@H]3C[C@@H]3c3ccccc3)C2)cc1` [Compound 012], > 1000 nM; that for `CCCCCCNC(=O)CC[C@H](NC(=O)c1ccc(C(=O)N2C[C@@H](C(=O)N[C@H]3C[C@@H]3c3ccccc3)[C@H](C(=O)N[C@H]3C[C@@H]3c3ccccc3)C2)cc1)C(=O)NCCCCCC` [Compound 013], > 1000 nM. On the same count and under the same terms, the result for `CCCCCCNC(=O)C[C@H](NC(=O)c1ccc(C(=O)N2C[C@@H](C(=O)N[C@H]3C[C@@H]3c3ccccc3)[C@H](C(=O)N[C@H]3C[C@@H]3c3ccccc3)C2)cc1)C(=O)NCCCCCC` [Compound 014] reads > 1000 nM.

Still in this assay, the particulars now being: HEK-Blue TLR2 reporter cells, agonist mode; average of all runs (Table 4).
Turning to `CCCCCCCC[C@@H]1CN(C(=O)c2ccc(C(=O)N3C[C@@H](C(=O)N[C@H]4C[C@@H]4c4ccccc4)[C@H](C(=O)N[C@H]4C[C@@H]4c4ccccc4)C3)cc2)C[C@H]1C(=O)NCCCCCC` (single isomer, unassigned) [Compound 111], the EC50 was in the range of 0.1 to 50 nM. With `CCCCCCCC[C@H]1CN(C(=O)c2ccc(C(=O)N3C[C@@H](C(=O)N[C@H]4C[C@@H]4c4ccccc4)[C@H](C(=O)N[C@H]4C[C@@H]4c4ccccc4)C3)cc2)C[C@@H]1C(=O)NCCCCCC` (single isomer, unassigned) [Compound 112], the EC50 lay within 51 to 350 nM. Molecule `CCCCCCCO[C@@H]1CN(C(=O)c2ccc(C(=O)N3C[C@@H](C(=O)N[C@H]4C[C@@H]4c4ccccc4)[C@H](C(=O)N[C@H]4C[C@@H]4c4ccccc4)C3)cc2)C[C@H]1C(=O)NCCCCCC` (single isomer, unassigned) [Compound 114, (3S,4S)-1-(4-((3S*,4R*)-3-(heptyloxy)-4-(hexylcarbamoyl)pyrrolidine-1-carbonyl)benzoyl)-N3,N4-bis((1S,2R)-2-phenylcyclopropyl)pyrrolidine-3,4-dicarboxamide] returned an EC50 of 51 to 350 nM.

As for `CCCCCCCO[C@H]1CN(C(=O)c2ccc(C(=O)N3C[C@@H](C(=O)N[C@H]4C[C@@H]4c4ccccc4)[C@H](C(=O)N[C@H]4C[C@@H]4c4ccccc4)C3)cc2)C[C@H]1C(=O)NCCCCCC` (single isomer, unassigned) [Compound 115, (3S,4S)-1-(4-((3R*,4R*)-3-(heptyloxy)-4-(hexylcarbamoyl)pyrrolidine-1-carbonyl)benzoyl)-N3,N4-bis((1S,2R)-2-phenylcyclopropyl)pyrrolidine-3,4-dicarboxamide], the EC50 is > 1000 nM. `CCCCCCCC(=O)N1CCCN(C(=O)c2ccc(C(=O)N3C[C@@H](C(=O)N[C@H]4C[C@@H]4c4ccccc4)[C@H](C(=O)N[C@H]4C[C@@H]4c4ccccc4)C3)cc2)C[C@H]1C(=O)NCCCCCC` (single isomer, unassigned) [Compound 145]: the EC50 is > 1000 nM.

Take `CCCCCCCC(=O)N1CCCN(C(=O)c2ccc(C(=O)N3C[C@@H](C(=O)N[C@H]4C[C@@H]4c4ccccc4)[C@H](C(=O)N[C@H]4C[C@@H]4c4ccccc4)C3)cc2)C[C@@H]1C(=O)NCCCCCC` (single isomer, unassigned) [Compound 146]: the EC50 lay within 351 to 1000 nM. On to `CCCCCCNC(=O)[C@H](CN[C@@H](c1ccc(C(=O)N2C[C@@H](C(=O)N[C@H]3C[C@@H]3c3ccccc3)[C@H](C(=O)N[C@H]3C[C@@H]3c3ccccc3)C2)cc1)C(F)(F)F)NC(=O)CCCCCC` (single isomer, unassigned) [Compound 148], for which the EC50 was in the range of 351 to 1000 nM. The same measure, in the same setting: for `CCCCCCNC(=O)[C@H](CN[C@H](c1ccc(C(=O)N2C[C@@H](C(=O)N[C@H]3C[C@@H]3c3ccccc3)[C@H](C(=O)N[C@H]3C[C@@H]3c3ccccc3)C2)cc1)C(F)(F)F)NC(=O)CCCCCC` (single isomer, unassigned) [Compound 149] the value was 51 to 350 nM; for `CCCCCCCC(=O)N1CCCN(C(=O)c2cccc(C(=O)N3C[C@@H](C(=O)N[C@H]4C[C@@H]4c4ccccc4)[C@H](C(=O)N[C@H]4C[C@@H]4c4ccccc4)C3)c2)C[C@H]1C(=O)NCCCCCC` (single isomer, unassigned) [Compound 190], 351 to 1000 nM.

For `CCCCCCCC(=O)N1CCCN(C(=O)c2cccc(C(=O)N3C[C@@H](C(=O)N[C@H]4C[C@@H]4c4ccccc4)[C@H](C(=O)N[C@H]4C[C@@H]4c4ccccc4)C3)c2)C[C@@H]1C(=O)NCCCCCC` (single isomer, unassigned) [Compound 191], the EC50 is 351 to 1000 nM. As to `CCCCCCCC(=O)N1CCCN(S(=O)(=O)c2cccc(C(=O)N3C[C@@H](C(=O)N[C@H]4C[C@@H]4c4ccccc4)[C@H](C(=O)N[C@H]4C[C@@H]4c4ccccc4)C3)c2)C[C@H]1C(=O)NCCCCCC` (single isomer, unassigned) [Compound 200], the EC50 was > 1000 nM. Molecule `CCCCCCCC(=O)N1CCCN(S(=O)(=O)c2cccc(C(=O)N3C[C@@H](C(=O)N[C@H]4C[C@@H]4c4ccccc4)[C@H](C(=O)N[C@H]4C[C@@H]4c4ccccc4)C3)c2)C[C@@H]1C(=O)NCCCCCC` (single isomer, unassigned) [Compound 201] yielded an EC50 of 351 to 1000 nM. The same measure, in the same setting: the result for `CCCCCCCC(=O)N1CCCN(S(=O)(=O)c2ccc(C(=O)N3C[C@@H](C(=O)N[C@H]4C[C@@H]4c4ccccc4)[C@H](C(=O)N[C@H]4C[C@@H]4c4ccccc4)C3)cc2)CC1C(=O)NCCCCCC` (single isomer, unassigned) [Compound 202, (3S,4S)-1-(4-(((S*)-3-(hexylcarbamoyl)-4-octanoyl-1,4-diazepan-1-yl)sulfonyl)benzoyl)-N3,N4-bis((1S,2R)-2-phenylcyclopropyl)pyrrolidine-3,4-dicarboxamide] reads 51 to 350 nM; that for `CCCCCCCCCCCCNC(=O)N[C@H]1CN(C(c2ccc(C(=O)N3C[C@@H](C(=O)N[C@H]4C[C@@H]4c4ccccc4)[C@H](C(=O)N[C@H]4C[C@@H]4c4ccccc4)C3)cc2)C(F)(F)F)C[C@@H]1OC` (single isomer, unassigned) [Compound 232, (3S,4S)-1-(4-((R*)-1-((3S,4S)-3-(3-dodecylureido)-4-methoxypyrrolidin-1-yl)-2,2,2-trifluoroethyl)benzoyl)-N3,N4-bis((1S,2R)-2-phenylcyclopropyl)pyrrolidine-3,4-dicarboxamide], 0.1 to 50 nM.

For `CCCCCCCCCCCCNC(=O)N[C@H]1CN(C(c2ccc(C(=O)N3C[C@@H](C(=O)N[C@H]4C[C@@H]4c4ccccc4)[C@H](C(=O)N[C@H]4C[C@@H]4c4ccccc4)C3)cc2)C(F)(F)F)C[C@@H]1OC` (single isomer, unassigned) [Compound 233, (3S,4S)-1-(4-((S*)-1-((3S,4S)-3-(3-dodecylureido)-4-methoxypyrrolidin-1-yl)-2,2,2-trifluoroethyl)benzoyl)-N3,N4-bis((1S,2R)-2-phenylcyclopropyl)pyrrolidine-3,4-dicarboxamide], the EC50 is 0.1 to 50 nM.
